Laboratory results published in article PMC10454726 (International Journal of Molecular Sciences, 2023).

Key:
[1] = target: α-glucosidase from Rominococcus obeum (Blautia obeum, UniProt A5ZY13); assay: Enzymatic kinetics of α-glucosidase inhibition (pNPG substrate); format: biochemical
Experimental: (§1) The kinetic studies for PTP1B and α-glucosidase were carried out under the same conditions described in the references.

[2] = tested on: female Wistar rats; assay: Acute oral toxicity (OECD guideline 425); format: in vivo; settings: for toxic effects at the macroscopic level (necropsy images): 175, 550, and 2000 mg/kg; for AOT (acute oral toxicity): female Wistar rats
Experimental: They were kept in standard polypropylene boxes under controlled temperature (24 ± 4 °C) on a 12 h light/dark cycle and provided conventional food (formula 5001, Rat Chow) and purified water ad libitum. […] At the end of the experiment, the animals were taken to the humanitarian endpoint by the intraperitoneal (ip) administration of 75 mg/kg of sodium pentobarbital to perform a necropsy in the bioterium of FESC, UNAM. During the necropsy, blood serum was extracted to quantify glucose, triacylglycerides, cholesterol, and insulin. The study was conducted based on the guidelines of the Declaration of Helsinki and approved by the Institutional Review Board: Internal Committee for the Care and Use of Experimentation Animals (CICUAE, according to the initials in Spanish, C23_02 on March 2023) of the FESC UNAM (Mexico). It complies with the Mexican norm for this matter (NOM-062-ZOO-1999, Technical Specifications for the Production, Care, and Use of Laboratory Animals, SAGARPA), as well as the Guide for the Care and Use of Laboratory Animals of the National Research Council and National Institutes of Health (NIH Publications No. 8023, revised 1978).
The female Wistar rats (n = 3) were used to obtain the AOT based on the procedures of Guide Number 425 of the Organization for Economic Cooperation and Development (OECD). The rats were closely monitored for 48 h after receiving oral doses of FC-114 or FC-122. Rat 1 received 175 mg/kg, rat 2 received 550 mg/kg, and rat 3 received 2000 mg/kg. They were then observed for 14 days until a necropsy to check for any toxic effects.

[3] = tested on: streptozotocin-induced diabetic rats; assay: Serum determinations (insulin, cholesterol) in streptozotocin-induced diabetic rats; format: in vivo, Wistar rat; settings: 14 days, FC-114 51.3 mg/kg/day
Experimental: To obtain serum from each rat under anesthesia, a 10 mL blood sample was taken via cardiac puncture of the exposed heart. After being left at room temperature for 10 min, the blood samples were centrifuged at 2500 rpm (1200× g) for 10 min to obtain the serum. The resulting serum was then frozen at −70 °C until needed. Prior to usage, the serum samples were thawed at room temperature.
The diabetic animals in group 2 (untreated) were given 4% v/v aqueous EtOH solution (vehicle of treatments) in a volume of 6.5 mL/kg body weight. The other groups (3–7) received different treatments for 14 days (weeks 5 to 7). […] All of the treatments were at equimolar doses of PIO and adjusted to the weekly weight of each rat. […] The commercial PIO tablet (30 mg) was crushed in 7.5 mL of vehicle and given to each animal in 4.0 mg/mL of suspension. The FC-114 and FC-122 suspensions were created at 6.2 and 6.0 mg/mL, respectively. The commercial acarbose tablet (50 mg) was crushed in 7.5 mL of the vehicle and given to each animal in a suspension of 6.6 mg/mL. Each suspension was used within 2 days of its preparation, and the administration volume was near to 2.5 mL for each rat.
The blood determinations were carried out using different kits: glucose (1001191, Spinreact, Girona, Spain, 1045), TAG (41032, Spinreact, LIQ557), insulin (RAB09A-1EA-KC, Sigma, 11092020), total cholesterol (41020, Spinreact, LIQ384), and HDL cholesterol (1001095, Spinreact, H166). Mathematically, the c-LDL cholesterol was determined by subtracting the HDL fraction from the total cholesterol.

[4] = tested on: PTP1B; parameters: method as in PMID 34299651; settings: cited from earlier work
[5] = target: T1, PTP1B1–400 (Homo sapiens, UniProt P18031); assay: Enzyme kinetic assay for PTP1B1–400 (pNPP substrate); format: biochemical
T1 construct: we performed an enzyme kinetic assay for PTP1B1–400
T1 sequence (P18031 1-400): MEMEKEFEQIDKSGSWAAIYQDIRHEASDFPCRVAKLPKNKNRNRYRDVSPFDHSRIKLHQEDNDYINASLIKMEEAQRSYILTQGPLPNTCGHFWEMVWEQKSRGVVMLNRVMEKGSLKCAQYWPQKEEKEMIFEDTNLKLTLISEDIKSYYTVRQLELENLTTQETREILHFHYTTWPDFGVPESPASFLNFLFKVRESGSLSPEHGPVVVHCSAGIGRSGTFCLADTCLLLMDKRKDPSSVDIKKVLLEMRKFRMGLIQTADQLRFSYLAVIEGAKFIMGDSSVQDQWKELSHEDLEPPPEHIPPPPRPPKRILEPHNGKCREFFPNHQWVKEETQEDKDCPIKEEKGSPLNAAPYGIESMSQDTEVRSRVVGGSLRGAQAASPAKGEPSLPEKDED
Excerpt: As pointed out in this paper’s introduction, we have reported the PTP1B inhibitory activity of FC-114 and FC-122 [53]. […] Nevertheless, the inhibition type of FC-122 remained unknown to date. Therefore, we performed an enzyme kinetic assay for PTP1B1–400 [59, 60, 61] using p-nitrophenyl phosphate (pNPP) as substrate at different concentrations as well as the inhibitor. Figure 2C depicts the double reciprocal plot of Lineweaver-Burk, showing the effect of FC-122 on the PTP1B activity.
as §1

Sequence of α-glucosidase from Rominococcus obeum (A5ZY13 entry or part of it): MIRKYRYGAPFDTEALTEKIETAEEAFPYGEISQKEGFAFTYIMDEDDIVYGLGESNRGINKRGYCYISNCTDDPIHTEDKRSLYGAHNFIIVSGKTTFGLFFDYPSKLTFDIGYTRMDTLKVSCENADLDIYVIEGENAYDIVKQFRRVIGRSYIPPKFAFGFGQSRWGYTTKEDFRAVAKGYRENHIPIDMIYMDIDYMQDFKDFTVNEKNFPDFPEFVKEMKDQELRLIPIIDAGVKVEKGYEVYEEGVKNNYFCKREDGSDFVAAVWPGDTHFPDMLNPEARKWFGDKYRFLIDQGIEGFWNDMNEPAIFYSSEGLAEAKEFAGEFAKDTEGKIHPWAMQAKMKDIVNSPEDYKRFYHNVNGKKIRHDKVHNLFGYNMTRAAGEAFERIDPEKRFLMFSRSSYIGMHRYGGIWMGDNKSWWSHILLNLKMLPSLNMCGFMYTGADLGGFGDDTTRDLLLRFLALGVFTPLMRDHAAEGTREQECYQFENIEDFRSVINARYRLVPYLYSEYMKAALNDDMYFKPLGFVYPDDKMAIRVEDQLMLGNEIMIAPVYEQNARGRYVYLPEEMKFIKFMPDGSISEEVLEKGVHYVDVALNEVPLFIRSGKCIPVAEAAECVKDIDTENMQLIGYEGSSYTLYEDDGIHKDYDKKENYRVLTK

SMILES | α-glucosidase inhibitory activity ([1]; range of concentrations tested) | toxic effects at the macroscopic level (necropsy images) [2] | Toxic Effects ([2]; dose 175 mg/kg oral) | Weight Gain for 2 Weeks ([2]; dose 175 mg/kg oral) [g] | Toxic Effects ([2]; dose 550 mg/kg oral) | Weight Gain for 2 Weeks ([2]; dose 550 mg/kg oral) [g] | Toxic Effects ([2]; dose 2000 mg/kg oral) | Weight Gain for 2 Weeks ([2]; dose 2000 mg/kg oral) [g] | AOT (acute oral toxicity) [2] | HDL levels [3] | calculated LDL cholesterol [3] | serum insulin levels [3] | serum total cholesterol [3] | Inhibition type (PTP1B) [4] | Ki [4] [µM] | Inhibition type (α-glucosidase) ([1]; Lineweaver-Burk plots) | Ki ([1]; substrate pNPG, Lineweaver-Burk) [µM] | fold better potency than acarbose (Ki) ([1]; vs acarbose) | Inhibition type (PTP1B) ([5]; Lineweaver-Burk plot) | Ki ([5]; substrate pNPP) [nM]
CC1(C)c2[nH]c3ccc(C(F)(F)F)cc3c2C[C@]2(C)[C@H]3C(=O)C=C4[C@@H]5C[C@@](C)(C(=O)O)CC[C@]5(C)CC[C@@]4(C)[C@]3(C)CC[C@@H]12 [FC-114] | not active | No toxic effects were observed | None | 22.8 | None | 23.4 | None | 21.5 | higher than 2000 mg/kg | without affecting | decreased | dramatically increasing trend | decreased | non-competitive | 3.9 |  |  |  |  | 
Cc1ccc(-n2ncc3c2C(C)(C)[C@@H]2CC[C@]4(C)[C@H](C(=O)C=C5[C@@H]6C[C@@](C)(C(=O)O)CC[C@]6(C)CC[C@]54C)[C@@]2(C)C3)cc1 [FC-122] |  | No toxic effects were observed | None | 23.5 | None | 25.2 | None | 26.4 | higher than 2000 mg/kg |  |  |  |  |  |  | linear-mixed type | 5.2 | ~ 5 fold | uncompetitive | 440
